According to patent publication US4652562A, “Quinoline derivatives and pharmaceutical compositions” (Egis Gyogyszergyar, priority 1985, dated 1987):

Columns and labels:
[1] = Toxicity in test animals (CFLP mice), LD50 per os; settings: mouse, in vivo, po
[2] = tested on: hypoxic Chinese hamster ovary cells; test: Radiosensitization of hypoxic Chinese hamster ovary cells, radiation survival curves (Do, Dq, N); format: cell-based; settings: for Dq (quasi threshold dose): Dq = Do ln N, minimum dose necessary to appearance of cell killing; for Do (mean lethal dose): hypoxic CHO cells, untreated controls 3.75-3.8 Gy
Source text: As is known [T. W. Wong, G. F. Whitmore and S. Gulyas: Radiat. Res. 75, 541-555 (1978)], parameters derived from radiation survival curves can be used for characterization of modifying effect, e.g. the slope of the exponential portion of survival curve and the calculated mean lethal dose (Do) as well as the overall extrapolation number (N).
The dose multiplication radiosensitization (DMR) means the ability of a given compound to increase the slope of the survival curve and consequently to decrease the mean lethal dose (Do).
On the effect of dose-additive radiosensitization (DAR) there is a reduction in the shoulder region of radiation survival curves, and in the best cases the sigmoid type survival curves characteristic of mammalian cells change into exponential ones.
For the degree of radiation modification, the quasi threshold dose (Dq) can be used, as well. This dose represents the width of shoulder region of radiation survival curves (Dq =Do ln N). The meaning of this measure from radiobiological point of view is the minimal dose necessary to produce appreciable cell killing effect.
1. […] According to the literature data, studies were undertaken on the same test-systems [Chinese hamster ovary cells cultured in vitro (CHO) and under similar circumstances (oxygenic- and hypoxic conditions, α-MEM with 10% foetal calf serum)].
Experiments were undertaken with hypoxic Chinese hamster ovary cells.
4. Determination of the quasi threshold dose (Dq). These values indicate the minimum dose necessary to the appearance of the end point (cell killing) studied from biological point of view.

[3] = tested on: hypoxic cells; settings: literature (Wong et al. 1978); cited from earlier work
[4] = cited from earlier work

| Structure (SMILES) | LD50 [1] [mg/kg] | Dq (quasi threshold dose) [2] [Gy] | Do (mean lethal dose) [2] [Gy] | degree of dose-multiplicative and dose-additive radiosensitization [3] | Dq (quasi threshold dose) ([2]; listed as misonidazole) | dose-multiplicative or dose-additive radiosensitization ([4]; 0° C., depending on drug concentration, Harris et al. 1975) | toxicity ([4]; 37° C.) |
| --- | --- | --- | --- | --- | --- | --- | --- |
| NC(=Nc1c([N+](=O)[O-])cnc2ccccc12)N1CCOCC1 [Example 1, N-(3-Nitro-4-quinolyl)-morpholino carboxamidine] | > 2000 | 0 | 1.7 | – | – | – | – |
| COCC(O)Cn1ccnc1[N+](=O)[O-] (stereo not shown) [Misonidazole, 3-methoxy-1-(2-nitro-1-imidazole-1-yl)-2-propanol] | – | 5 | 2.5 | only in a small degree | above 5 Gy | – | – |
| CN(C)C(=O)N=NC(=O)N(C)C [Diamide, tetramethyl-diazene-dicarboxamide] | – | – | 3.3 | – | – | either dose-multiplicative- or dose-additive-radiosensitization could be observed at a lower temperature (0° C.) depending on the drug concentration applied, but both effects did not appear simultaneously | extremely toxic |
